Measurements as given in patent US5945436A, “Pyridylmethyl nitriles, amides and thioamides useful as fungicides” (Uniroyal Chemical Company, Inc., priority 1997, dated 1999).

Experiments:
Erysiphe graminis [1] = assay: Powdery mildew of barley, systemic root uptake (BMS); type: in vivo; details: 45 ml of 250 mg/l, 8 days after inoculation
Procedure: (§1) Compositions containing Compounds Nos. 1-81 were prepared by dissolving 0.24 grams of each of the compounds in 8 ml of acetone or other suitable inert solvent. Each of the resultant solutions was treated with 3 drops of TWEEN 20 (ethoxylated ethylene sorbitan monolaurate, a non-ionic surfactant)(I.C.I.), and water was added to form an emulsion. The degree of dilution with water was dictated by the desired concentration of the compound in the composition. The greater the quantity of water added, the lower the concentration of the compound in the composition, reported in milligrams per liter (mg/l) […] Upon reaching these ages, the plants were either treated with 45 ml of 250 mg/l concentration of the compositions of Example 9 or were left untreated. The untreated plants were used as controls. The 45 ml compositions saturated the soil of the treated pots without significant loss through drainage into the saucers below the pots. Twenty-four hours after the treatment with the compositions, both the barley and cucumber plants in all the pots, those treated and those untreated, were inoculated with powdery mildew fungus. This was accomplished by tapping leaves of previously infected barley and cucumber plants over the treated and untreated pots containing the barley and cucumber plants, respectively, to distribute spores of the fungus over the plants tested. […] Intermediate ratings were assigned depending on the degree of disease. […] The results of the powdery mildew disease control of barley are reported under the heading of "BMS". The results for cucumber mildew control are reported under the heading "CMS".

Erysiphe cichoracearum = assay: Powdery mildew of cucumber, systemic root uptake (CMS); type: in vivo; details: 45 ml of 250 mg/l, 8 days after inoculation
Procedure: as §1

Erysiphe graminis [2] = assay: Powdery mildew in barley, foliar application (ERY GRA); type: in vivo; details: Blumeria graminis, foliar, 192 h, foliar, 1,000 mg/l, 8 days after inoculation, read-out: Percent Reduction of Disease, ERY GRA
Procedure: Compositions containing Compounds Nos. 1-81 were prepared by dissolving 0.24 grams of each of the compounds in 8 ml of acetone or other suitable inert solvent. Each of the resultant solutions was treated with 3 drops of TWEEN 20 (ethoxylated ethylene sorbitan monolaurate, a non-ionic surfactant)(I.C.I.), and water was added to form an emulsion. The degree of dilution with water was dictated by the desired concentration of the compound in the composition. The greater the quantity of water added, the lower the concentration of the compound in the composition, reported in milligrams per liter (mg/l) Ten plants of "Robust" variety barley were planted in each of a plurality of pots. Each pot was then either sprayed with one of the compositions of Example 9, at a composition concentration of 1,000 mg/l, or left unsprayed. For each pot sprayed, one pot was left unsprayed as a control. After the leaves of the sprayed pots were dried, the sprayed pots and the unsprayed control pots were placed in a greenhouse maintained at 21° C. All the pots were then inoculated with barley powdery mildew fungus, Erysiphe graminis. This inoculation was accomplished by distributing spores of the fungus over the leaves of the plants to be tested from plants which had previously been infected with the mildew disease. […] Again, percent control was computed by comparing the treatment scores with the scores of the untreated controls. The results are summarized in Table II under the heading "ERY GRA".

Helminthosporium sativum = assay: Barley spot blotch, foliar treatment (HEL SAT); type: in vivo; details: Helminthosporium, foliar, 216 h, foliar, 1,000 mg/l, read-out: Percent Reduction of Disease, HEL SAT
Procedure: Compositions containing Compounds Nos. 1-81 were prepared by dissolving 0.24 grams of each of the compounds in 8 ml of acetone or other suitable inert solvent. Each of the resultant solutions was treated with 3 drops of TWEEN 20 (ethoxylated ethylene sorbitan monolaurate, a non-ionic surfactant)(I.C.I.), and water was added to form an emulsion. The degree of dilution with water was dictated by the desired concentration of the compound in the composition. The greater the quantity of water added, the lower the concentration of the compound in the composition, reported in milligrams per liter (mg/l) Ten plants of six day-old Barley (variety "Robust") were planted in each of a plurality of pots. Each pot was then either sprayed with one of the compositions of Example 9, at a concentration of 1,000 mg/l, or left unsprayed. The unsprayed plants were used as controls. An equal number of pots were sprayed and unsprayed. All plants, sprayed and unsprayed, were thereafter inoculated with spores of the blotch fungus Helminthosporium sativum. All inoculated plants were placed in a 99% humidity chamber for 24 hours and then placed in a greenhouse, maintained at a temperature of 21° C., for eight days. […] Percent control was computed and the results are summarized in Table II under the heading "HEL SAT".

[3] = tested on: Cercosporidium personatum; assay: Fungal germination and growth, treated disc on agar, scored (CER PER); type: cell-based; parameters: key: 100: Complete inhibition of germination and growth.; 80: Nearly complete inhibition but some growth.; 50: Partial inhibition of growth or, early complete inhibition but later growth begins.; 20: Some inhibition of growth, but not significant.; 0: No inhibition of growth; details: disc dipped in 500 mg/l, 29° C., numerical score 0-100, spore suspension
Source text: Filter paper discs, each 11 mm. in diameter, were dipped in each of the test solutions. The discs were allowed to air dry to drive off the acetone solvent. A number of untreated discs were used as controls. The treated and untreated discs were then placed on agar plates and one of the following fungus species: Septoria nodorum (SEP NOD), Botrytis cinerea (BOT CIN), Fusarium oxysporum (FUS OXY), Pythium ultimum ([…]), Rhizoctonia solani (RHI SOL), Colletotrichum gossypii (COL GOS), and Scierotinia minor (SCL MIN), was added to the center of each disc in the form of a culture plug with the fungus mat in contact with the paper of the test disc. Cercosporidium personatum (CER PER), was added to discs as a spore suspension (20,000 spores/ml) to the disc (two drops of spore suspension per disc), rather than a mycelial culture plug. The plates were then incubated at 29° C. in an oven. In the case of the Cercosporidium personatum (CER PER) fungi, scoring was done on a numerical basis as follows: 100=Complete inhibition of germination and growth. 80=Nearly complete inhibition but some growth. 50=Partial inhibition of growth or, early complete inhibition but later growth begins. 20=Some inhibition of growth, but not significant. 0=No inhibition of growth. The results of all the above tests appear in Table III below under the headings "SEP NOD," "BOT CIN," "FUS OXY," "[…]" "COL GOS" and "CER PER".

Scierotinia minor = assay: Fungal growth inhibition, treated disc on agar (SCL MIN); type: cell-based; details: disc dipped in 500 mg/l, 29° C., read-out: Percent Growth Inhibition, SCL MIN
Rhizoctonia solani = assay: Fungal growth inhibition, treated disc on agar (RHI SOL); type: cell-based; details: Rhizoctonia solani, disc dipped in 500 mg/l, 29° C., read-out: Percent Growth Inhibition, RHI SOL
Botrytis cinerea = assay: Fungal growth inhibition, treated disc on agar (BOT CIN); type: cell-based; details: Botrytis cinerea, disc dipped in 500 mg/l, 29° C., read-out: Percent Growth Inhibition, BOT CIN
Fusarium oxysporum = assay: Fungal growth inhibition, treated disc on agar (FUS OXY); type: cell-based; details: Fusarium oxysporum, disc dipped in 500 mg/l, 29° C., read-out: Percent Growth Inhibition, FUS OXY

SMILES	Percent Reduction of Disease, BMS (Erysiphe graminis [1]) [%]	Percent Reduction of Disease, CMS (Erysiphe cichoracearum) [%]	pest or weed control at 1000 µg/mL (Erysiphe graminis [2]) [%]	pest or weed control at 1000 µg/mL (Helminthosporium sativum) [%]	CER PER inhibition score [3]	inhibition at 500 µg/mL (Scierotinia minor) [%]	inhibition at 500 µg/mL (Rhizoctonia solani) [%]	inhibition at 500 µg/mL (Botrytis cinerea) [%]	inhibition at 500 µg/mL (Fusarium oxysporum) [%]
N#CC(CCc1ccccc1)(CCc1ccccc1)c1cccnc1 [A, reference compound]	15	50	0	60	0	10	10	0	10
CC(C)(C)c1ccc(CC(C#N)(Cc2ccc(C(C)(C)C)cc2)c2cccnc2)cc1 [B, reference compound]	10	50	15	0	0	60	15	0	0
CCCC(C#N)(CCc1ccccc1)c1cccnc1 (stereo not drawn) [Compound 1]	60	0	100	65	100	100	95	5	97
CCCCCCCC(C#N)(CCc1ccccc1)c1cccnc1 (stereo not drawn) [Compound 2]	0	0	100	80	100	100	0	60	30
CCCCCC(C#N)(CCc1ccccc1)c1cccnc1 (stereo not drawn) [Compound 3]	35	35	100	100	100	100	10	100	0
C#CCC(C#N)(CCc1ccccc1)c1cccnc1 (stereo not drawn) [Compound 4]	35	20	70	0	100	98	82	94	100
C=CCC(C#N)(CCc1ccccc1)c1cccnc1 (stereo not drawn) [Compound 5]	85	88	85	70	0	95	100	100	76
